Data as given in patent US20240325398A1, “COMBINATION THERAPIES” (Infinity Pharmaceuticals, Inc., priority 2014, published 2024).

Experiments:
[1] = system: CDK1, CDK2, CDK4, CDK7 and CDK9; details: in words; cited from earlier work
KARPAS-422 = assay: Combination study, ATPLite 72 h, dose matrix (Synergy Score, CI50); details: combination with Compound 1, 72 h
Method: (§1) Cells are thawed from a liquid nitrogen preserved state. Once cells have been expanded and divide at their expected doubling times, screening begins. Cells are seeded in growth media in either black 1536-well or 384-well tissue culture treated plates. Cells are then equilibrated in assay plates via centrifugation and placed in incubators attached to the Dosing Modules at 37° C. for 24 hours before treatment. […] These Tzero (To) plates are read using ultra-sensitive luminescence on Envision plate readers (Perkin Elmer). Treated assay plates are incubated with compound for 72 hours. After 72 hours, plates are developed for endpoint analysis using ATPLite. All data points are collected via automated processes, quality controlled and analyzed using Zalicus software.
(§2) where T is treated cell count and V is untreated (vehicle) cell count (at 72 hours). I ranges from 0% (when T=V) to 100% (when T=0). […] The measure of effect in the experiment can be the inhibition of cellular response relative to the untreated level (vehicle alone). […] The inhibition ranges from 0% at the untreated level to 100% when T=0. Inhibition levels are negative for agents that actually increase levels. Other effect measures, such as an activity ratio r=T/V may be more appropriate for some assays. When activity ratios (e.g, fold increase over stimulated control) are being used, the effect can be measured using an induction 1=ln(T/V). With this definition, all effect expressions are the same as for inhibition.
(§3) Growth Inhibition (GI) is used as a measure of cell viability. […] A GI reading of 100% represents complete growth inhibition—T72 compound-treated and T0 vehicle signals are matched. […] A GI reading of 200% represents complete death of all cells in the culture well. Compounds reaching an activity plateau of GI 200% are considered cytotoxic. GI is calculated by applying the following test and equation:
(§4) Combination analysis data were collected in a 6×6 dose matrix. Synergy is calculated by comparing a combination's response to those of its single compound, against the drug-with-itself dose-additive reference model. Deviations from dose additivity may be assessed visually on an isobologram or numerically with a Combination Index (CI). […] Additive effect is CI=1.0. […] Antagonistic effect is CI>1.0.
(§5) To measure combination effects in excess of Loewe additivity, a scalar measure to characterize the strength of synergistic interaction termed the Synergy Score is devised. The Synergy Score is calculated as:
(§6) The fractional inhibition for each component agent and combination point in the matrix is calculated relative to the median of all vehicle-treated control wells. The Synergy Score equation integrates the experimentally-observed activity volume at each point in the matrix in excess of a model surface numerically derived from the activity of the component agents using the Loewe model for additivity. Additional terms in the Synergy Score equation (above) are used to normalize for various dilution factors used for individual agents and to allow for comparison of synergy scores across an entire experiment. The inclusion of positive inhibition gating or an Idata multiplier removes noise near the zero effect level, and biases results for synergistic interactions at that occur at high activity levels.
(§7) Loewe Volume (Loewe Vol) is used to assess the overall magnitude of the combination interaction in excess of the Loewe additivity model. Loewe Volume is particularly useful when distinguishing synergistic increases in a phenotypic activity (positive Loewe Volume) versus synergistic antagonisms (negative Loewe Volume). […] This model defines additivity as a non-synergistic combination interaction where the combination dose matrix surface should be indistinguishable from either drug crossed with itself.

GRANTA-519 = assay: as above; details: combination with Compound 1
RPMI-8226 = assay: as above; details: combination with Compound 1
WSU-NHL = assay: as above; details: combination with Compound 1, 72 h
HH = assay: as above; format: cell-based; details: combination with Compound 1
Method: The method is described as follows.
Additive effect is CI=1.0. […] Antagonistic effect is CI>1.0.
The Synergy Score is calculated as: […]

NCI-H929 = assay: as above; details: combination with Compound 1
Farage = assay: as above; details: combination with Compound 1; Farage; 72 h
Method: as §1, §2, §3, §4
The isobologram was drawn by identifying the locus of concentrations that correspond to crossing the indicated inhibition level. This is done by finding the crossing point for each single agent concentration in a dose matrix across the concentrations of the other single agent. Practically, each vertical concentration CY is held fixed while a bisection algorithm is used to identify the horizontal concentration CX in combination with that vertical dose that gives the chosen effect level in the response surface Z(CX,CY). These concentrations are then connected by linear interpolation to generate the isobologram display. For synergistic interactions, the isobologram contour fall below the additivity threshold and approaches the origin, and an antagonistic interaction would lie above the additivity threshold. The error bars represent the uncertainty arising from the individual data points used to generate the isobologram. The uncertainty for each crossing point is estimated from the response errors using bisection to find the concentrations where Z−αZ(CX,CY) and Z+σZ(CX,CY) cross Icut, where αZ is the standard deviation of the residual error on the effect scale.
as §5
The fractional inhibition for each component agent and combination point in the matrix is calculated relative to the median of all vehicle-treated control wells.

SU-DHL-4-epst = assay: as above; details: combination with Compound 1, 72 h
TMD8 = assay: as above; details: combination with Compound 1
RL = assay: as above; details: combination with Compound 1, 72 h
DOHH-2 = assay: as above; details: combination with Compound 1, 72 h
SU-DHL-10-epst = assay: as above; details: combination with Compound 1, 72 h
HBL-1 = assay: as above; details: combination with Compound 1, 72 h
[2] = as above; details: combination with Compound 1; OPM-2
Method: as §1, §2, §3, §4, §5, §6, §7

OMP-2 = assay: as above; details: combination with Compound 1; OPM-2
Method: as §1, §2, §3, §4, §5, §6, §7

OCI-Ly3 = assay: as above; details: combination with Compound 1; OCI-Ly3; 72 h
Method: as §1, §2, §3, §4, §5, §6
Loewe Volume (Loewe Vol) is used to assess the overall magnitude of the combination interaction in excess of the Loewe additivity model. Loewe Volume is particularly useful when distinguishing synergistic increases in a phenotypic activity (positive Loewe Volume) versus synergistic antagonisms (negative Loewe Volume). […] This model defines additivity as a non-synergistic combination interaction where the combination dose matrix surface should be indistinguishable from either drug crossed with itself. The calculation for Loewe additivity is:

OCI-Ly7 = assay: as above; details: combination with Compound 1, 72 h
KARPAS-299 = assay: as above; details: combination with Compound 1
Mino = assay: as above; details: combination with Compound 1
U-2932 = assay: as above; details: combination with Compound 1, 72 h
Jeko-1 = assay: as above; details: combination with Compound 1

CC1(C)/C(=C2/C(=O)Nc3ccc(S(N)(=O)=O)cc32)Nc2ccccc21 [ZK-304709, (Z)-3,3-dimethyl-2′-oxo-[2,3′-biindolinylidene]-5′-sulfonamide]
nanomolar range: IC50 values, CDK1, CDK2, CDK4, CDK7 and CDK9 [1]

CC(=O)Nc1cccc(-n2c(=O)n(C3CC3)c(=O)c3c(Nc4ccc(I)cc4F)n(C)c(=O)c(C)c32)c1 [trametinib, N-(3-{3-cyclopropyl-5-[(2-fluoro-4-iodophenyl)amino]-6,8-dimethyl-2,4,7-trioxo-3,4,6,7-tetrahydropyrido[4,3-d]pyrimidin-1(2H)-yl}phenyl)acetamide]
U (U=0.7 to <1): CI50 growth inhibition (RPMI-8226) | CI50 inhibition (Farage) | CI50 growth inhibition (DOHH-2) | CI50 growth inhibition (HBL-1) | CI50 growth inhibition (U-2932) | CI50 growth inhibition (Jeko-1)
T (T=0.5 to <0.7): CI50 growth inhibition (WSU-NHL) | CI50 growth inhibition (NCI-H929) | CI50 growth inhibition [2]
A2 (A2=1 to <3): Synergy Score growth inhibition (KARPAS-422) | Synergy Score inhibition (KARPAS-422) | Synergy Score growth inhibition (GRANTA-519) | Synergy Score growth inhibition (RPMI-8226) | Synergy Score inhibition (HH) | Synergy Score inhibition (NCI-H929) | Synergy Score growth inhibition (Farage) | Synergy Score inhibition (Farage) | Synergy Score inhibition (SU-DHL-4-epst) | Synergy Score inhibition (DOHH-2) | Synergy Score growth inhibition (HBL-1) | Synergy Score growth inhibition (OMP-2) | Synergy Score inhibition (OMP-2) | Synergy Score growth inhibition (OCI-Ly3)
A3 (A3=>3): Synergy Score growth inhibition (WSU-NHL) | Synergy Score inhibition (WSU-NHL) | Synergy Score growth inhibition (HH) | Synergy Score growth inhibition (NCI-H929) | Synergy Score growth inhibition (SU-DHL-4-epst) | Synergy Score growth inhibition (TMD8; TMD8, 72 h) | Synergy Score inhibition (TMD8; TMD8, 72 h) | Synergy Score growth inhibition (DOHH-2) | Synergy Score growth inhibition (SU-DHL-10-epst) | Synergy Score inhibition (SU-DHL-10-epst) | Synergy Score growth inhibition (Mino) | Synergy Score inhibition (Mino)
W (W=≥1): CI50 growth inhibition (Farage) | CI50 inhibition (DOHH-2) | CI50 inhibition (OMP-2) | CI50 growth inhibition (OCI-Ly3) | CI50 inhibition (Jeko-1)
synergistic effect: effect of the combination (isobologram) (TMD8; TMD8 DLBCL cell line, FIG. 1-3)
A1 (A1=0.0001 to <1): Synergy Score inhibition (GRANTA-519) | Synergy Score inhibition (RPMI-8226) | Synergy Score growth inhibition (RL) | Synergy Score inhibition (RL) | Synergy Score inhibition (HBL-1) | Synergy Score inhibition (OCI-Ly3) | Synergy Score growth inhibition (OCI-Ly7) | Synergy Score inhibition (OCI-Ly7) | Synergy Score growth inhibition (KARPAS-299) | Synergy Score inhibition (KARPAS-299) | Synergy Score growth inhibition (U-2932) | Synergy Score inhibition (U-2932) | Synergy Score growth inhibition (Jeko-1) | Synergy Score inhibition (Jeko-1)
S (S=0.01 to <0.5): CI50 growth inhibition (KARPAS-422) | CI50 inhibition (KARPAS-422) | CI50 growth inhibition (GRANTA-519) | CI50 inhibition (WSU-NHL) | CI50 growth inhibition (HH) | CI50 inhibition (HH) | CI50 inhibition (NCI-H929) | CI50 growth inhibition (SU-DHL-4-epst) | CI50 inhibition (SU-DHL-4-epst) | CI50 growth inhibition (TMD8; TMD8, 72 h) | CI50 inhibition (TMD8; TMD8, 72 h) | CI50 growth inhibition (SU-DHL-10-epst) | CI50 inhibition (SU-DHL-10-epst) | CI50 growth inhibition (Mino) | CI50 inhibition (Mino)
